Experimental findings from US20110053883A1, “AGENT THAT MODULATES PHYSIOLOGICAL CONDITION OF PESTS, INVOLVED IN INSECT C-JUN AMINO-TERMINAL KINASE ACTIVITY” (SUMITOMO CHEMICAL COMPANY, LIMITED, priority 2005, published 2011) are described below.

Each structure is given as a SMILES string. Like-named read-outs stand apart in the source and are kept apart here.

One assay concerns Aphis gossypii. The assay is described as follows: Pesticidal activity test, rearing on artificial feed containing the test compound. In kind it is in vivo. The following applies: 144 h, read-out: Determination result of pesticidal activity; for pest or weed control at 50 ppm: test compound in DMSO to a final concentration of 50 ppm. The protocol:
A sterilized artificial feed having the following composition (Table 3) was prepared. Then, according to the same manner as that of the method described in Handbook of Insect Rearing Vol. 1 (Elsevier Science Publishers 1985) pp. 35 to pp. 36 except that a test compound dissolved in DMSO to a final concentration of 640 μM was added at 0.5 volume of the artificial feed, and components were mixed, Aphis gossypii was reared. […] Controlling value(%)={1−(Cb×Tai)/(Cai×Tb)}×100 Letters in the equation represent the following meanings. Cb: Number of surviving worms before treatment in non-treated section Cai: Number of surviving worms at observation in non-treated section Tb: Number of surviving worms before treatment in treated section Tai: Number of surviving worms at observation in treated section […]

Assay [1] has as its target aphid c-Jun NH2-terminal kinase (Aphis gossypii, UniProt A0A9P0JGV4). The experiment in a line: In vitro aphid c-Jun NH2-terminal kinase activity measurement (IMAP fluorescence polarization, peptide substrate). It counts as biochemical, cotton aphid (Aphis gossypii). The settings on record: for inhibition at 10 µM: test compound at final concentration of 10 μM, relative to DMSO, read-out: Activity of inhibiting c-Jun NH2-terminal kinase activity (inhibition degree (%) at 10 μM addition); for IC50: concentrations 100 μM to 0.03 μM, XLfit, read-out: Activity of inhibiting c-Jun NH2-terminal kinase activity (IC50, (μM)). As for the experimental part:
Selection of a compound which modulates the activity of a c-Jun NH2-terminal kinase was performed in a system where the activity of a c-Jun NH2-terminal kinase which is modulated by adding a test compound to an in vitro reaction system using the aphid c-Jun NH2-terminal kinase prepared in Example 7 is measured and evaluated.
Measurement of the activity of the aphid c-Jun NH2-terminal kinase was performed using IMAP screening Express Kit with progressive Binding system (manufactured by Molecular Device) according to a method described in the manual annexed to the system and employing, as a substrate, a peptide comprising the amino acid sequence of SEQ ID NO: 13 to which biotin was added at the amino-terminus, and a peptide comprising the amino acid sequence of SEQ ID NO: 14 in which the carboxyl-terminus was fluorescently labeled.
For measuring the activity, the activity of the aphid c-Jun NH2-terminal kinase was measured when a test compound dissolved in DMSO was contained to a final concentration of 10 μM. In addition, the activity of the aphid c-Jun NH2-terminal kinase was measured when DMSO was contained in place of a test compound. Then, a ratio (%) of a measured value of the activity of the aphid c-Jun NH2-terminal kinase when a test compound dissolved in DMSO was contained, relative to a measured value of the activity of aphid c-Jun NH2-terminal kinase when DMSO was contained in place of the test compound was calculated, and a value obtained by subtracting the calculated value from 100% was adopted as an inhibition degree (%). Results in each test compound are shown in Table 4 in Example 9 together with results of Example 9.
The activity of aphid c-Jun NH2-terminal kinase was measured when a test compound dissolved in DMSO was contained to a final concentration of each concentration of 100 μM, 30 μM, 10 μM, 3 μM, 1 μM, 0.3 μM, 0.1 μM or 0.03 μM. IC50 (μM) was calculated from the result of each concentration at each test compound using a concentration-dependent test analyzing software XL fit (manufactured by idbs). Results are shown in Table 5 in Example 10 together with results of Example 9.
(In general: Fluorescence polarisation rises when a labelled molecule tumbles more slowly, as on binding a larger partner.)

Where [2] appears, read: test compound in DMSO to a final concentration of 640 μM, in artificial feed, surviving Aphis gossypii six days after rearing.
Setting [3] is: in artificial feed, surviving Aphis gossypii six days after rearing.

Sequence of aphid c-Jun NH2-terminal kinase (A0A9P0JGV4 entry or part of it): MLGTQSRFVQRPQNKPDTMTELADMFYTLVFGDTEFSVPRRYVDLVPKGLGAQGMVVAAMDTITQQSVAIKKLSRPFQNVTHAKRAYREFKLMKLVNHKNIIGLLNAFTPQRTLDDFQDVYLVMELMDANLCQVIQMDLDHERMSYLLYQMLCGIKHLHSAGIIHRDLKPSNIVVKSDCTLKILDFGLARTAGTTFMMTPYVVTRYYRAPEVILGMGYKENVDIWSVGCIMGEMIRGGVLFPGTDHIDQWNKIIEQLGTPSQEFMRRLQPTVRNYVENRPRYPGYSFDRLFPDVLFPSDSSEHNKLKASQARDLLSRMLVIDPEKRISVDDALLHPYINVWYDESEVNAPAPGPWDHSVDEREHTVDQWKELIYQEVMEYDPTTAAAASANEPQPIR

One may read the inhibition as the relative decrease from the control value, in per cent. Take `O=C1c2ccccc2-c2n[nH]c3cccc1c23` [Anthra[1,9-CD] pyrazole-6(2H)-one, reference compound]: the pest or weed control at 640 µM in the assay on Aphis gossypii (setting [2]) is greater than 30%. Also, in assay [1], the inhibition at 10 µM turned out to be 83%.

Broadly, the IC50 is the concentration that gives 50% inhibition. Take `OCC1OC(n2cnc3c(O)ncnc32)C(O)C1O` (stereo not shown) [DC05429]: in the assay with Aphis gossypii (setting [3]), the pest or weed control at 50 ppm was less than 30%. The IC50 in assay [1] was greater than 100 µM.

In the case of `O=C1NC(=O)C(c2c[nH]c3ccccc23)=C1c1c[nH]c2ccccc12` [Arcyriarubin A, reference compound], in the assay with Aphis gossypii (setting [2]), the pest or weed control at 640 µM is greater than 30%. The inhibition at 10 µM in assay [1] was determined as 73%.

Consider `CCOC(=O)/C(=C(/F)SCC(C)=O)C(F)(F)F` [DF06524], for which the pest or weed control at 50 ppm in the assay with Aphis gossypii (setting [3]) was greater than 30%. Further, the IC50 in assay [1] was 47.9 µM.

With `O=C1CC2(Oc3ccccc3O2)C(=O)O1` [DB04029], the pest or weed control at 50 ppm with Aphis gossypii (setting [3]) is less than 30%. Moreover, the IC50 in assay [1] was greater than 100 µM.

Regarding `COc1ccc(C(=O)c2ccccc2)c(O)c1` [DD08100], the pest or weed control at 50 ppm in the assay with Aphis gossypii (setting [3]) is less than 30%. Also, the half-inhibitory concentration (IC50) in assay [1] is greater than 100 µM.

As for `Sc1ncnc2nc[nH]c12` [DD08068], the pest or weed control at 50 ppm in the assay with Aphis gossypii (setting [3]) is less than 30%. Besides, the concentration for half-maximal inhibition (IC50) in assay [1] was greater than 100 µM.

With `CC(C)(C)n1nc(-c2cccc3ccccc23)c2c(N)ncnc21` [4-amino-1-tert-butyl-3-(1-naphthyl) pyrazolo(3,4-d) pyrimidine, reference compound], the pest or weed control at 640 µM in the assay with Aphis gossypii (Aphis gossypii) was greater than 30%. Also, the inhibition at 10 µM in assay [1] turned out to be 68%.
